Experimental data: ChEMBL document CHEMBL5154816, “Structure-Based Discovery and Optimization of Furo[3,2-c]pyridin-4(5H)-one Derivatives as Potent and Second Bromodomain (BD2)-Selective Bromo and Extra Terminal Domain (BET) Inhibitors” (J Med Chem, 2022)

Columns and labels:
[1] = Cytotoxicity against human HFL1 cells assessed as cell growth inhibition incubated for 72 hrs by Cell titre Glo-luminiscence cell viability assay; type: toxicity, cell-based
[2] = biological target: T1, Bromodomain-containing protein 3 (Homo sapiens, UniProt Q15059); experiment: Inhibition of C-terminal His6-tagged BRD3 BD2 (unknown origin) using H-YSGRGK(Ac)GGK(Ac)GLGK(Ac)-GGAK(Ac)RHRK-Biotin-OH as substrate incubated for 1 hrs by HTRF assay
[3] = biological target: T2, Bromodomain-containing protein 2 (Homo sapiens, UniProt P25440); experiment: Inhibition of C-terminal His6-tagged BRD2 BD2 (unknown origin) using H-YSGRGK(Ac)GGK(Ac)GLGK(Ac)-GGAK(Ac)RHRK-Biotin-OH as substrate incubated for 1 hrs by HTRF assay
[4] = Metabolic stability in rat liver microsomes assessed as half life at 1 uM measured up to 60 mins in presence of NADPH by HPLC-MS/MS analysis; type: ADME, Microsome
[5] = Metabolic stability in human liver microsomes assessed as half life at 1 uM measured up to 60 mins in presence of NADPH by HPLC-MS/MS analysis; type: ADME, Microsome
[6] = Metabolic stability in human liver microsomes assessed as intrinsic clearance at 1 uM measured up to 60 mins in presence of NADPH by HPLC-MS/MS analysis; type: ADME, Microsome; conditions: 1 h
[7] = Metabolic stability in rat liver microsomes assessed as intrinsic clearance at 1 uM measured up to 60 mins in presence of NADPH by HPLC-MS/MS analysis; type: ADME, Microsome; conditions: 1 h
[8] = Metabolic stability in rat hepatocytes assessed as hepatic clearance at 1 uM measured up to 60 mins in presence of NADPH by HPLC-MS/MS analysis; type: ADME, cell-based, Hepatocyte
[9] = Metabolic stability in human hepatocytes assessed as hepatic clearance at 1 uM measured up to 60 mins in presence of NADPH by HPLC-MS/MS analysis; type: ADME, cell-based, Hepatocyte
MV4-11 = experiment: Antiproliferative activity against human MV4-11 cells assessed as cell growth inhibition incubated for 120 hrs by Cell titre Glo-luminiscence cell viability assay; type: functional, cell-based
MOLM-13 = experiment: Antiproliferative activity against human MOLM-13 cells assessed as cell growth inhibition incubated for 72 hrs by Cell titre Glo-luminiscence cell viability assay; type: functional, cell-based; conditions: MOLM-13, 72 h
Kasumi 1 = experiment: Antiproliferative activity against human Kasumi 1 cells assessed as cell growth inhibition incubated for 72 hrs by Cell titre Glo-luminiscence cell viability assay; type: functional, cell-based; conditions: Kasumi 1, 72 h
THP-1 = experiment: Antiproliferative activity against human THP-1 cells assessed as cell growth inhibition incubated for 72 hrs by Cell titre Glo-luminiscence cell viability assay; type: functional, cell-based; conditions: THP-1, 72 h
CWR22R = experiment: Antiproliferative activity against human 22Rv1 cells assessed as cell growth inhibition incubated for 72 hrs by Cell titre Glo-luminiscence cell viability assay; type: functional, cell-based; conditions: 22Rv1, 72 h
HT-29 = experiment: Antiproliferative activity against human HT-29 cells assessed as cell growth inhibition incubated for 120 hrs by Cell titre Glo-luminiscence cell viability assay; type: functional, cell-based; conditions: HT-29, 120 h
DU-145 = experiment: Antiproliferative activity against AR-negative human DU-145 cells assessed as cell growth inhibition incubated for 72 hrs by Cell titre Glo-luminiscence cell viability assay; type: functional, cell-based; conditions: DU-145, 72 h
[10] = biological target: T1, Bromodomain-containing protein 3; experiment: Binding affinity to His6-fused human BRD3 BD1 assessed as dissociation constant in PBS incubated for 1 hrs by biolayer interferometry analysis
[11] = biological target: T1, Bromodomain-containing protein 3; experiment: Binding affinity to His6-fused BRD3 BD2 (unknown origin) assessed as dissociation constant in PBS incubated for 1 hrs by biolayer interferometry analysis
[12] = biological target: T2, Bromodomain-containing protein 2; experiment: Binding affinity to His6-fused BRD2 BD1 (unknown origin) assessed as dissociation constant in PBS incubated for 1 hrs by biolayer interferometry analysis
[13] = biological target: T2, Bromodomain-containing protein 2; experiment: Binding affinity to His6-fused BRD2 BD2 (unknown origin) assessed as dissociation constant in PBS incubated for 1 hrs by biolayer interferometry analysis
[14] = biological target: T3, Bromodomain testis-specific protein (Homo sapiens, UniProt Q58F21); experiment: Binding affinity to His6-fused BRDT BD1 (unknown origin) assessed as dissociation constant in PBS incubated for 1 hrs by biolayer interferometry analysis
[15] = biological target: T3, Bromodomain testis-specific protein; experiment: Binding affinity to His6-fused BRDT BD2 (unknown origin) assessed as dissociation constant in PBS incubated for 1 hrs by biolayer interferometry analysis
MCF7 = experiment: Antiproliferative activity against human MCF7 cells assessed as cell growth inhibition incubated for 96 hrs by Cell titre Glo-luminiscence cell viability assay; type: functional, cell-based; conditions: MCF7, 96 h
MDA-MB-231 = experiment: Antiproliferative activity against human MDA-MB-231 cells assessed as cell growth inhibition incubated for 96 hrs by Cell titre Glo-luminiscence cell viability assay; type: functional, cell-based; conditions: MDA-MB-231, 96 h
A549 = experiment: Antiproliferative activity against human A549 cells assessed as cell growth inhibition incubated for 72 hrs by Cell titre Glo-luminiscence cell viability assay; type: functional, cell-based; conditions: A549, 72 h
U2OS = experiment: Antiproliferative activity against human U2OS cells assessed as cell growth inhibition incubated for 72 hrs by Cell titre Glo-luminiscence cell viability assay; type: functional, cell-based
U-937 = experiment: Antiproliferative activity against human U-937 cells assessed as cell growth inhibition incubated for 72 hrs by Cell titre Glo-luminiscence cell viability assay; type: functional, cell-based; conditions: U-937, 72 h
HepG2 = experiment: Antiproliferative activity against human HepG2 cells assessed as cell growth inhibition incubated for 72 hrs by Cell titre Glo-luminiscence cell viability assay; type: functional, cell-based; conditions: HepG2, 72 h
BXPC-3 = experiment: Antiproliferative activity against human BxPC-3 cells assessed as cell growth inhibition incubated for 72 hrs by Cell titre Glo-luminiscence cell viability assay; type: functional, cell-based; conditions: BXPC-3, 72 h
[16] = biological target: T4, Bromodomain-containing protein 4 (Homo sapiens, UniProt O60885); conditions: dose 100.0 µM, time 30.0 min
[17] = biological target: T4, Bromodomain-containing protein 4; experiment: Binding affinity to His6-fused BRD4 BD1 (unknown origin) assessed as dissociation constant in PBS incubated for 1 hrs by biolayer interferometry analysis
[18] = biological target: T4, Bromodomain-containing protein 4; experiment: Binding affinity to His6-fused BRD4 BD2 (unknown origin) assessed as dissociation constant in PBS incubated for 1 hrs by biolayer interferometry analysis

T2 sequence (P25440 whole entry): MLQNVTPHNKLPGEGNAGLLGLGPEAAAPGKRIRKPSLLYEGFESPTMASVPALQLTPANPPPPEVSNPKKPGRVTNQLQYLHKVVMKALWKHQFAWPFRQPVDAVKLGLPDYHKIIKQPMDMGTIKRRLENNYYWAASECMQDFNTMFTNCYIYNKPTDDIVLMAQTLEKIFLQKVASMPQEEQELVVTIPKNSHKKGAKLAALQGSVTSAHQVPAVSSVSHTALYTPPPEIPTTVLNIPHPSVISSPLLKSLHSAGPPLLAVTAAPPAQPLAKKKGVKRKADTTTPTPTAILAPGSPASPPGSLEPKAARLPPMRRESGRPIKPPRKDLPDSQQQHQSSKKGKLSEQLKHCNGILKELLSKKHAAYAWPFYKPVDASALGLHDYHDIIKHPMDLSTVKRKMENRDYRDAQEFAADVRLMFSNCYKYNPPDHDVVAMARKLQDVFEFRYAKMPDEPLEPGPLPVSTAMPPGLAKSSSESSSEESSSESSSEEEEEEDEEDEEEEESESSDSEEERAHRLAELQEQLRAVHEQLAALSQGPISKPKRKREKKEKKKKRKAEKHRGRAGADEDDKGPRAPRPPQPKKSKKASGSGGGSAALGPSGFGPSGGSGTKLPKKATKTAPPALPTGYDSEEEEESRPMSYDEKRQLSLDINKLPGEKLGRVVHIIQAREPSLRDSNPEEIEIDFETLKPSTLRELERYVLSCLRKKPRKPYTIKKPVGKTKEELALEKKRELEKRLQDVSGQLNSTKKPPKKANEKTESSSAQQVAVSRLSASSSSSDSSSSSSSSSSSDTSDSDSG
T1 sequence (Q15059 whole entry): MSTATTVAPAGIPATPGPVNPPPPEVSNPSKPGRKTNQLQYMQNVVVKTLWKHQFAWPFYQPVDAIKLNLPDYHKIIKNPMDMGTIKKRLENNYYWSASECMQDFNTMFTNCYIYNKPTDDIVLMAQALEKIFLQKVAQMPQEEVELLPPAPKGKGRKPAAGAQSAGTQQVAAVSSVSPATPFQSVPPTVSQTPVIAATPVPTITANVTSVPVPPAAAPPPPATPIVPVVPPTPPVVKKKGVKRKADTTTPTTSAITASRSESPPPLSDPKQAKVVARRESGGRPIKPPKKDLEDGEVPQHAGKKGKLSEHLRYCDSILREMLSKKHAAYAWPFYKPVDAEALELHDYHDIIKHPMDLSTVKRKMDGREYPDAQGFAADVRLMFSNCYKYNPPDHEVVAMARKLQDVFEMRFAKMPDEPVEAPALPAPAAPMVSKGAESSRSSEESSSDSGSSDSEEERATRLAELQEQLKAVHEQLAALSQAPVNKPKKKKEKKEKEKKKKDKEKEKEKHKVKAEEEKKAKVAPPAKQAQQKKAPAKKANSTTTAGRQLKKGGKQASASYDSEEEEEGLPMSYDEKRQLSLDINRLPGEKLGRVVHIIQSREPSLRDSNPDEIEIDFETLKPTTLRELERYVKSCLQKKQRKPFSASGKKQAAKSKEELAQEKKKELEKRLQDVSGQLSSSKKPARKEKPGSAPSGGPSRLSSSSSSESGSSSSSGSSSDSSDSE

Cc1cc(F)cc(C)c1Oc1ccc(C(C)(C)O)cc1-c1cn(C)c(=O)c2cc(-c3cnc(C4CCCC4)[nH]3)oc12
IC50 at 72 h [1]: 4600 nM
IC50 [2]: 5.31 nM
IC50 [3]: 5.09 nM
half-life at 1 µM [4]: 58.3 min
half-life at 1 µM [5]: 15.2 min
CLH [6]: 0.115 mL/min/g
CLH [7]: 0.043 mL/min/g
CLhep predicted at 1 µM [8]: 17.9 mL/min/kg
CLH ([8]; 1 h, 1 µM): 0.043 mL/min/g
CLhep predicted at 1 µM [9]: 17.5 mL/min/kg
CLH ([9]; 1 h, 1 µM): 0.115 mL/min/g
IC50 (MV4-11; Homo sapiens, MV4-11, 120 h): 0.549 nM
IC50 (MV4-11; mv4-11): 0.55 nM
IC50 (MOLM-13): 260 nM
IC50 (Kasumi 1): 471 nM
IC50 (THP-1): 1300 nM
IC50 (CWR22R): 232 nM
IC50 (HT-29): 300 nM
IC50 (DU-145): 1000 nM
Kd [10]: 1330 nM
Kd [11]: 26.3 nM
Kd [12]: 1200 nM
Kd [13]: 23.5 nM
Kd [14]: 3670 nM
Kd [15]: 38.8 nM
IC50 (MCF7): 1000 nM
IC50 (MDA-MB-231): 1000 nM
IC50 (A549): 1000 nM
IC50 (U2OS): 1000 nM
IC50 (U-937): 1000 nM
IC50 (HepG2): 1000 nM
IC50 (BXPC-3): 1000 nM

Cc1cc(F)cc(C)c1Oc1ccc(C(C)(C)O)cc1-c1cn(C)c(=O)c2cc(-c3cnc(C4CCC4)[nH]3)oc12
ΔTm [16]: 5.5 °C

Cc1cc(F)cc(C)c1Oc1ccc(C(C)(C)O)cc1-c1cn(C)c(=O)c2cc(-c3cnc(C4CCCCC4)[nH]3)oc12
IC50 [2]: 12.8 nM
IC50 [3]: 11.1 nM
Kd [17]: 4960 nM
Kd [18]: 44.2 nM
Kd [10]: 9780 nM
Kd [11]: 89.5 nM
Kd [12]: 1070 nM
Kd [13]: 126 nM
Kd [14]: 3310 nM
Kd [15]: 195 nM
ΔTm [16]: 2.75 °C

Cc1cc(F)cc(C)c1Oc1ccc(C(C)(C)O)cc1-c1cn(C)c(=O)c2cc(-c3cnc(C4CC4)[nH]3)oc12
ΔTm [16]: 5.25 °C
